{
  "source": "patent US7998971B2",
  "about": "“Combinations containing a 4-acylaminopyridine derivative” (BrainCells Inc., priority 2006, dated 2011)",
  "key": {"[1]": {"test_system": "human neural stem cells (hNSCs)", "assay": "Neuronal differentiation of human neural stem cells (TUJ-1 staining, concentration response curves)", "type": "cell-based", "conditions": "for pEC50: Homo sapiens, Neural stem cell; for maximum neuronal differentiation percent of positive control: MKC-231 CRC 0.01-31.6 uM, azakenpaullone CRC 0.001-3.2 uM", "excerpt": "Mitogen-free test media with a positive control for neuronal differentiation was used along with basal media without growth factors as a negative control. […]"}, "mGlu7 and mGlu8": {"test_system": "mGlu7 and mGlu8", "conditions": "above 1 μM; cited from earlier work"}, "[2]": {"target": "acetylcholinesterase (AChE) (Homo sapiens, UniProt P22303)", "sequence (P22303 32-614, species assumed)": "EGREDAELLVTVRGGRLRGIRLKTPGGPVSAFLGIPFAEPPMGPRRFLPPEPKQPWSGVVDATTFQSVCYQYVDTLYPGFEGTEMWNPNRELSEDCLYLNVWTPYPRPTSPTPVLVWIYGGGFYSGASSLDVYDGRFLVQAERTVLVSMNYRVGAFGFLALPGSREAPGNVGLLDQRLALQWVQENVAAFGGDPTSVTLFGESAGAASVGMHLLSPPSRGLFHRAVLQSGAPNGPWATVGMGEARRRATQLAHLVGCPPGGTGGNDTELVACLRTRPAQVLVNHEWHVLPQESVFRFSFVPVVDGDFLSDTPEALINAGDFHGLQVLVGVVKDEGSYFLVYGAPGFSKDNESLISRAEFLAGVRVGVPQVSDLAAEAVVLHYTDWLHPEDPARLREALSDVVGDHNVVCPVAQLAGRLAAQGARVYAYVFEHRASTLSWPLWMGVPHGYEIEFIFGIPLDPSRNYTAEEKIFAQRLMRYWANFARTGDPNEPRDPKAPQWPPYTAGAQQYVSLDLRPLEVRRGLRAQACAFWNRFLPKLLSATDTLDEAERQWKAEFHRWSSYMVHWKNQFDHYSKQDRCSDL", "conditions": "cited from earlier work"}, "[3]": {"conditions": "agent alone, hNSCs, percentage of neuronal positive control, basal media subtracted, read-out: EC50 of neuronal differentiation, agent used alone"}},
  "note": "pEC50: −log10 of the molar value. Where two headings read alike, the source gives them in different places.",
  "data": [
    {"smiles": "C[C@]12CC[C@@H]3c4ccc(O)cc4CC[C@H]3[C@@H]1CC[C@@H]2O", "note": "[estradiol]", "values": [
      {"measurement": "pEC50", "setting": "[1]; agent alone, hNSCs, extrapolated, read-out: EC50 of neuronal differentiation, agent used alone, estimated by extrapolation of the observed data", "result": 5.36}
    ]},
    {"smiles": "N[C@](CC1c2ccccc2Oc2ccccc21)(C(=O)O)[C@H]1C[C@@H]1C(=O)O", "note": "[LY341495, (2S)-2-amino-2-(1S,2S-2-carboxycycloprop-1-yl)-3-(xanth-9-yl) propanoic acid]", "values": [
      {"measurement": "activity against mGlu7 and mGlu8 at higher concentrations", "setting": "mGlu7 and mGlu8", "result": "antagonist activity"}
    ]},
    {"smiles": "CN(CCOc1ccc(CC2SC(=O)NC2=O)cc1)c1ccccn1", "note": "(stereo not drawn) [rosiglitazone]", "values": [
      {"measurement": "pEC50", "setting": "[1]; [3]", "result": 5.44}
    ]},
    {"smiles": "Cc1onc(O)c1CC(N)C(=O)O", "note": "(stereo not drawn) [AMPA, α-amino-3-hydroxy-5-methylisoxazole-4-propionic acid]", "values": [
      {"measurement": "effect on differentiation at 0.316 μM", "setting": "[1]; AMPA alone at 0.316 μM", "result": "no effect"},
      {"measurement": "pEC50", "setting": "[1]; read-out: EC50 of neuronal differentiation, agent used alone", "result": "~4.50"}
    ]},
    {"smiles": "CC(C)c1c(C(=O)Nc2ccccc2)c(-c2ccccc2)c(-c2ccc(F)cc2)n1CC[C@@H](O)C[C@@H](O)CC(=O)O", "note": "[atorvastatin]", "values": [
      {"measurement": "pEC50", "setting": "[1]; [3]", "result": 8.52}
    ]},
    {"smiles": "O=C1CC[C@@]2(O)[C@H]3Cc4ccc(O)c5c4[C@@]2(CCN3CC2CC2)[C@H]1O5", "note": "[naltrexone]", "values": [
      {"measurement": "pEC50", "setting": "[1]; [3]", "result": 5.35}
    ]},
    {"smiles": "Cc1oc2nc3c(c(NC(=O)CN4CCCC4=O)c2c1C)CCCC3", "note": "[MKC-231, 2-(2-oxopyrrolidin-1-yl)-N-(2,3-dimethyl-5,6,7,8-tetrahydrofuro[2,3-b]-quinolin-4-yl)acetoamide]", "values": [
      {"measurement": "pEC50", "setting": "[1]; [3]", "result": 5.07},
      {"measurement": "maximum neuronal differentiation percent of positive control", "setting": "[1]; hNSCs", "result": 53, "unit": "%"},
      {"measurement": "AChE inhibitory activity", "setting": "[2]", "result": "does not have such inhibitory activity"}
    ]},
    {"smiles": "Clc1ccc2c(c1)N=C(N1CCNCC1)c1ccccc1N2", "note": "[N-desmethylclozapine]", "values": [
      {"measurement": "neurogenic activity", "setting": "[1]; assays as disclosed herein", "result": "highly neurogenic"}
    ]},
    {"smiles": "O=C1Cc2c([nH]c3ccc(Br)cc23)-c2ncccc2N1", "note": "[azakenpaullone]", "values": [
      {"measurement": "maximum neuronal differentiation percent of positive control", "setting": "[1]; hNSCs", "result": 120, "unit": "%"}
    ]}
  ]
}
